The record followed here is patent US20240190880A1 (THE REGENTS OF THE UNIVERSITY OF MICHIGAN, priority 2021, published 2024).

The term DC50 denotes the concentration giving 50% degradation.

A value given as a limit tells only on which side of the number the result lay.

One assay has as its target T1, ER (Homo sapiens, UniProt P03372).
T1 construct: host or cells: T47D and MCF7 human breast cancer cells
T1 sequence (P03372 1-595): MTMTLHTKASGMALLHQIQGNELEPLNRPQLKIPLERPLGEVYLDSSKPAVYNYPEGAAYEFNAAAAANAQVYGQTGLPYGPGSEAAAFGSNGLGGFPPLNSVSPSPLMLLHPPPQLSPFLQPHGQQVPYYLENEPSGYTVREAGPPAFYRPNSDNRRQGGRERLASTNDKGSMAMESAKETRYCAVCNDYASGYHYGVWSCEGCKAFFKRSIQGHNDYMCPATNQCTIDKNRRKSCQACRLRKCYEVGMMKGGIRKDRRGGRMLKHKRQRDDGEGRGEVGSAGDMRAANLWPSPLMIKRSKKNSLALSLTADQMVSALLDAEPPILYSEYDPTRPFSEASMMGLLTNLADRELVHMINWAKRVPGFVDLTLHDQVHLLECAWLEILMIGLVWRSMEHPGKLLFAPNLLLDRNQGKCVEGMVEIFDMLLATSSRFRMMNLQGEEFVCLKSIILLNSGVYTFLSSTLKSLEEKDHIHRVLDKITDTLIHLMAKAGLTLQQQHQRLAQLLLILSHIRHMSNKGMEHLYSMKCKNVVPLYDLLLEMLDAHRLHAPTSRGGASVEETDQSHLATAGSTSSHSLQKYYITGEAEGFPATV
As to the kind of experiment: ER degradation activity, in-cell western blot analysis in T47D cells. It counts as cell-based. To be noted: 16 hours, Table A does not say which cell line (T47D or MCF7), read-out: Potency (DC50). The gist of the method: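 T47D cells grown in DMEM with 10% FBS were treated with compounds for 16 hours at 0.5% DMSO final. ER was detected by in-cell western using 680/800 near-infrared secondary antibodies. Residual ER is given as percent of untreated and DMSO-treated wells set to 100%.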
With `O=C1CCC(N2C(=O)c3cc4c(cc3C2=O)CN(CC(=O)N2CCC(C(=O)N3CC(Oc5ccc([C@@H]6c7ccc(O)cc7CC[C@@H]6c6ccccc6)cc5)C3)CC2)C4)C(=O)N1` (stereo partly drawn) [E 376, 2-(2,6-dioxopiperidin-3-yl)-6-(2-(4-(3-(4-((1R,2S)-6-hydroxy-2-phenyl-1,2,3,4-tetrahydronaphthalen-1-yl)phenoxy)azetidine-1-carbonyl)piperidin-1-yl)-2-oxoethyl)-6,7-dihydropyrrolo[3,4-f]isoindole-1,3(2H,5H)-dione], the half-maximal degradation concentration (DC50) was over 100 nM.

As for `O=C1CCC(N2C(=O)c3cc4c(cc3C2=O)CN(CC(=O)N2CCC(Oc3ccc([C@@H]5c6ccc(O)cc6CC[C@@H]5c5ccccc5)cc3)CC2)C4)C(=O)N1` (stereo partly drawn) [E 219, 2-(2,6-dioxopiperidin-3-yl)-6-(2-(4-(4-((1R,2S)-6-hydroxy-2-phenyl-1,2,3,4-tetrahydronaphthalen-1-yl)phenoxy)piperidin-1-yl)-2-oxoethyl)-6,7-dihydropyrrolo[3,4-f]isoindole-1,3(2H,5H)-dione], the DC50 is over 100 nM.

In the case of `O=C1CCC(N2C(=O)c3cc4c(cc3C2=O)CN(CC(=O)NC2CCN(c3ccc([C@@H]5c6ccc(O)cc6CC[C@@H]5c5ccccc5)cc3)CC2)C4)C(=O)N1` (stereo partly drawn) [E331, 2-(6-(2,6-dioxopiperidin-3-yl)-5,7-dioxo-3,5,6,7-tetrahydropyrrolo[3,4-f]isoindol-2(1H)-yl)-N-(1-(4-((1R,2S)-6-hydroxy-2-phenyl-1,2,3,4-tetrahydronaphthalen-1-yl)phenyl)piperidin-4-yl)acetamide], the DC50 was over 100 nM.

In the case of `C[C@H]1Cc2c([nH]c3ccccc23)[C@H](c2c(F)cc(N3CC4(CCN(C(=O)CN5Cc6cc7c(cc6C5)C(=O)N(C5CCC(=O)NC5=O)C7)CC4)C3)cc2F)N1CC(F)F` (stereo in doubt) [E 85, 3-(6-(2-(2-(4-((1S,3S)-2-(2,2-difluoroethyl)-3-methyl-2,3,4,9-tetrahydro-1H-pyrido[3,4-b]indol-1-yl)-3,5-difluorophenyl)-2,7-diazaspiro[3.5]nonan-7-yl)-2-oxoethyl)-1-oxo-3,5,6,7-tetrahydropyrrolo[3,4-f]isoindol-2(1H)-yl)piperidine-2,6-dione], the DC50 was under 10 nM.

Take `C[C@@H]1Cc2c([nH]c3ccccc23)[C@@H](c2c(F)cc(C(=O)N3CCC4(CCC(CN5Cc6cc7c(cc6C5)C(=O)N(C5CCC(=O)NC5=O)C7=O)CC4)CC3)cc2F)N1CC(F)F` (stereo partly drawn) [E 378, 6-((3-(4-((1R,3R)-2-(2,2-difluoroethyl)-3-methyl-2,3,4,9-tetrahydro-1H-pyrido[3,4-b]indol-1-yl)-3,5-difluorobenzoyl)-3-azaspiro[5.5]undecan-9-yl)methyl)-2-(2,6-dioxopiperidin-3-yl)-6,7-dihydropyrrolo[3,4-f]isoindole-1,3(2H,5H)-dione]: the half-maximal degradation concentration (DC50) is over 100 nM.

Regarding `C[C@@H]1Cc2c([nH]c3ccccc23)[C@@H](c2c(F)cc(N3CC4(CCN4CC(=O)N4Cc5cc6c(cc5C4)C(=O)N(C4CCC(=O)NC4=O)C6=O)C3)cc2F)N1CC(F)F` (stereo partly drawn) [E 60, 6-(2-(6-(4-((1R,3R)-2-(2,2-difluoroethyl)-3-methyl-2,3,4,9-tetrahydro-1H-pyrido[3,4-b]indol-1-yl)-3,5-difluorophenyl)-1,6-diazaspiro[3.3]heptan-1-yl)acetyl)-2-(2,6-dioxopiperidin-3-yl)-6,7-dihydropyrrolo[3,4-f]isoindole-1,3(2H,5H)-dione], the DC50 is over 100 nM.

`O=C1CCC(N2C(=O)c3cc4c(cc3C2=O)CN(CC(=O)N2CC3(C2)CN(c2ccc([C@@H]5c6ccc(O)cc6CC[C@@H]5c5ccc(F)cc5)cc2)C3)C4)C(=O)N1` (mixture of isomers) [E 18, Rac-2-(2,6-dioxopiperidin-3-yl)-6-(2-(6-(4-((1R,2S)-2-(4-fluorophenyl)-6-hydroxy-1,2,3,4-tetrahydronaphthalen-1-yl)phenyl)-2,6-diazaspiro[3.3]heptan-2-yl)-2-oxoethyl)-6,7-dihydropyrrolo[3,4-f]isoindole-1,3(2H,5H)-dione]: the DC50 was 10 to 100 nM.

For `O=C1CCC(N2C(=O)c3cc4c(cc3C2=O)CN(CC(=O)N2CCC3(CC2)CN(c2ccc([C@@H]5c6ccc(O)cc6CC[C@@H]5c5ccc(F)cc5Cl)cc2)C3)C4)C(=O)N1` (mixture of isomers) [E 11, rac-6-(2-(2-(4-((1R,2S)-2-(2-chloro-4-fluorophenyl)-6-hydroxy-1,2,3,4-tetrahydronaphthalen-1-yl)phenyl)-2,7-diazaspiro[3.5]nonan-7-yl)-2-oxoethyl)-2-(2,6-dioxopiperidin-3-yl)-6,7-dihydropyrrolo[3,4-f]isoindole-1,3(2H,5H)-dione], the DC50 fell in the range of 10 to 100 nM.

Turning to `C[C@@H]1Cc2c([nH]c3ccccc23)[C@@H](c2c(F)cc(C3CCN(C(=O)C4CCC(N5Cc6cc7c(cc6C5)C(=O)N(C5CCC(=O)NC5=O)C7=O)CC4)CC3)cc2F)N1CC(F)F` (stereo partly drawn) [E 348, 6-(4-(4-(4-((1R,3R)-2-(2,2-difluoroethyl)-3-methyl-2,3,4,9-tetrahydro-1H-pyrido[3,4-b]indol-1-yl)-3,5-difluorophenyl)piperidine-1-carbonyl)cyclohexyl)-2-(2,6-dioxopiperidin-3-yl)-6,7-dihydropyrrolo[3,4-f]isoindole-1,3(2H,5H)-dione], the half-maximal degradation concentration (DC50) fell in the range of 10 to 100 nM.

As for `C[C@@H]1Cc2c([nH]c3ccccc23)[C@@H](c2c(F)cc(N3CCC(N4CC(C(=O)N5Cc6cc7c(cc6C5)C(=O)N(C5CCC(=O)NC5=O)C7=O)C4)CC3)cc2F)N1CC(F)F` (stereo partly drawn) [E 119, 6-(1-(1-(4-((1R,3R)-2-(2,2-difluoroethyl)-3-methyl-2,3,4,9-tetrahydro-1H-pyrido[3,4-b]indol-1-yl)-3,5-difluorophenyl)piperidin-4-yl)azetidine-3-carbonyl)-2-(2,6-dioxopiperidin-3-yl)-6,7-dihydropyrrolo[3,4-f]isoindole-1,3(2H,5H)-dione], the 50% degradation concentration (DC50) was over 100 nM.

In the case of `C[C@@H]1Cc2c([nH]c3ccccc23)[C@@H](c2c(F)cc(N3CC4(CCCN(C(=O)CN5Cc6cc7c(cc6C5)C(=O)N(C5CCC(=O)NC5=O)C7)C4)C3)cc2F)N1CC(F)F` (stereo partly shown) [E 69], the half-maximal degradation concentration (DC50) is over 100 nM.

Turning to `O=C1CCC(N2C(=O)c3cc4c(cc3C2=O)CN(CC(=O)N2CCC3(CC2)CCN(c2ccc([C@@H]5c6ccc(O)cc6CC[C@@H]5C5CCCCC5)cc2)CC3)C4)C(=O)N1` (mixture of isomers) [E 177, Rac-6-(2-(9-(4-((1R,2R)-2-cyclohexyl-6-hydroxy-1,2,3,4-tetrahydronaphthalen-1-yl)phenyl)-3,9-diazaspiro[5.5]undecan-3-yl)-2-oxoethyl)-2-(2,6-dioxopiperidin-3-yl)-6,7-dihydropyrrolo[3,4-f]isoindole-1,3(2H,5H)-dione], the DC50 lay in the range of 10 to 100 nM.

For `C[C@@H]1Cc2cc(O)ccc2[C@@H](c2c(F)cc(N3CCC(CN4CCC(N5Cc6cc7c(cc6C5)C(=O)N(C5CCC(=O)NC5=O)C7=O)CC4)CC3)cc2F)N1CC(F)F` (stereo partly drawn) [E 270, 6-(1-((1-(4-((1S,3R)-2-(2,2-difluoroethyl)-6-hydroxy-3-methyl-1,2,3,4-tetrahydroisoquinolin-1-yl)-3,5-difluorophenyl)piperidin-4-yl)methyl)piperidin-4-yl)-2-(2,6-dioxopiperidin-3-yl)-6,7-dihydropyrrolo[3,4-f]isoindole-1,3(2H,5H)-dione], the half-maximal degradation concentration (DC50) is over 100 nM.

The same assay, now with this note: compounds 16 hours, Table A does not say whether T47D or MCF7, read-out: Potency (DC50).
Take `C[C@@H]1Cc2cc(O)ccc2[C@@H](c2c(F)cc(C(=O)N3CC4(CCN(C(=O)CN5Cc6cc7c(cc6C5)C(=O)N(C5CCC(=O)NC5=O)C7=O)CC4)C3)cc2F)N1CC(F)F` (stereo partly drawn) [E 457, 6-(2-(2-(4-((1S,3R)-2-(2,2-difluoroethyl)-6-hydroxy-3-methyl-1,2,3,4-tetrahydroisoquinolin-1-yl)-3,5-difluorobenzoyl)-2,7-diazaspiro[3.5]nonan-7-yl)-2-oxoethyl)-2-(2,6-dioxopiperidin-3-yl)-6,7-dihydropyrrolo[3,4-f]isoindole-1,3(2H,5H)-dione]: the 50% degradation concentration (DC50) was in the range of 10 to 100 nM.

On to `CC1(C(=O)N2CCC(N3Cc4cc5c(cc4C3)C(=O)N(C3CCC(=O)NC3=O)C5=O)CC2)CCN(c2ccc([C@@H]3c4ccc(O)cc4CC[C@@H]3c3ccccc3)cc2)CC1` (mixture of isomers) [E 488, rac-2-(2,6-dioxopiperidin-3-yl)-6-(1-(1-(4-((1R,2S)-6-hydroxy-2-phenyl-1,2,3,4-tetrahydronaphthalen-1-yl)phenyl)-4-methylpiperidine-4-carbonyl)piperidin-4-yl)-6,7-dihydropyrrolo[3,4-f]isoindole-1,3(2H,5H)-dione], for which the DC50 was over 100 nM.

For the compound `C[C@@H]1Cc2cc(O)ccc2[C@H](c2ccc(C3=CCC4(CC3)CCN(C(=O)CN3Cc5cc6c(cc5C3)C(=O)N(C3CCC(=O)NC3=O)C6=O)CC4)cc2)N1CC(F)F` (stereo partly drawn) [E 449, 6-(2-(9-(4-((1S,3R)-2-(2,2-difluoroethyl)-6-hydroxy-3-methyl-1,2,3,4-tetrahydroisoquinolin-1-yl)phenyl)-3-azaspiro[5.5]undec-8-en-3-yl)-2-oxoethyl)-2-(2,6-dioxopiperidin-3-yl)-6,7-dihydropyrrolo[3,4-f]isoindole-1,3(2H,5H)-dione], the DC50 is over 100 nM.
